Where two headings read alike, the source gives them in different places.
Assays:
in vitro = details: dog
[1] = test system: recombinant virus Wuhan95 (H3N2); type: cell-based, influenza A virus A/Wuhan/359/95 (H3N2)
[2] = test system: recombinant Wuhan95 (H3N2) PB1-V43I virus; type: cell-based, influenza A virus A/Wuhan/359/95 (H3N2)
[3] = test system: Wuhan95 (H3N2) PB1-V43I virus; type: cell-based, influenza A virus A/Wuhan/359/95 (H3N2)
[4] = test system: Wuhan95 (H3N2) wild-type virus; type: cell-based, influenza A virus A/Wuhan/359/95 (H3N2)

Row | Structure (SMILES) | CC50 (in vitro) [µM] | genomic mutation frequency [1] | fold higher virus titre of PB1-V43I virus compared to wild-type recombinant Wuhan95 virus [2] [fold] | EC50 ([2]; read-out: EC50 (ribavirin, virus titre in MDCK cells)) [µM] | mutational frequency in the HA gene [3] | fold higher mutational frequency of wild-type virus than PB1-V43I virus [4] [fold] | mutational frequency in the HA gene [4] | fold increase in EC50, PB1-V43I mutant versus wild-type H3N2 virus [2] [fold] | EC50 ([2]; read-out: EC50 (favipiravir, virus titre in MDCK cells)) [µM]
1 | Nc1nc2c(ncn2[C@@H]2O[C@H](CO)[C@@H](O)[C@H]2O)c(=O)[nH]1 [guanosine] | 122 ± 0.11 |  |  |  |  |  |  |  | 
2 | NC(=O)c1ncn([C@@H]2O[C@H](CO)[C@@H](O)[C@H]2O)n1 [ribavirin, 1-[(2R,3R,4S,5R)-3,4-dihydroxy-5-(hydroxymethyl)oxolan-2-yl]-1H-1,2,4-triazole-3-carboxamide] | 352 ± 0.04 | 15.74 per 10^4 nucleotide sequenced | 10.8 | 73.5 | 4.08 mutations per 10^4 nucleotides | 1.36 | 5.53 mutations per 10^4 nucleotides |  | 
3 | NC(=O)c1nc(F)c[nH]c1=O [favipiravir] |  |  |  |  |  |  |  | 2.24 | 24.6

Reference: PMC4155405 (Nature communications, 2014)
